{"source": "patent US20070066616A1", "about": "“Inhibitors for extracellular signal-regulated kinase docking domains and uses therefor” (priority 2005, published 2007)", "key": {"[1]": {"target": "T1, ERK2 D316N (Mus musculus, UniProt P63085, D316N)", "T1 construct": "(His)x6; made in house; host or cells: bacteria (as described for ERK2 in general; not repeated for the mutant)", "T1 sequence (P63085 whole entry D316N, the tested form may be a part)": "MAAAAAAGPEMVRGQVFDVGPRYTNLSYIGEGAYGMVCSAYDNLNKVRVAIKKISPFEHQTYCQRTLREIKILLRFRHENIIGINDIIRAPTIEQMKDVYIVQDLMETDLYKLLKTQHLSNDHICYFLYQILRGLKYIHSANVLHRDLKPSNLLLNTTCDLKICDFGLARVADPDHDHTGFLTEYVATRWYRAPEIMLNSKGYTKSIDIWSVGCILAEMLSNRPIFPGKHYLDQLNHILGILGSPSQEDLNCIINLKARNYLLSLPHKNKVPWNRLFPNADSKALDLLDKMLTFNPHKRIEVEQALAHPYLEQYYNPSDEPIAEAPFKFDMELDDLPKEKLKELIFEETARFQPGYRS", "test": "Fluorescence titration with ERK2 point mutant D316N (CD domain)", "type": "binding", "conditions": "fluorescence quenching", "protocol": "(§1) Direct binding interactions between ERK2 and the biologically active compounds is determined using fluorescence spectroscopy (47). Experiments measure the changes in the intrinsic ERK2 fluorescence due to the presence of aromatic amino acids, with the indole group of tryptophan being the major fluorophore with absorption and emission maxima around 280 and 340 nanometers (nm), respectively. Fluorescence spectra were recorded with a Luminescence Spectrometer LS50 (Perkin Elmer, Boston, Mass.). For all experiments, ERK2 protein was diluted into 20 mM Tris-HCl, pH 7.5. Titrations were performed by increasing the test compound concentration while maintaining the ERK2 protein concentration at 3 μM.\nUnphosphorylated and phosphorylated ERK2 typically are incubated with […] of the biologically active compounds and the fluorescence intensity is measured. If necessary, higher inhibitor concentrations are used to saturate fluorescence quenching. The excitation wavelength was 295 nm and fluorescence was monitored from 300 to 500 nm. All reported fluorescence intensities are relative values and are not corrected for wavelength variations in detector response. […] Because the test compounds contain aromatic structures, the emission spectra of the active compounds in the absence of ERK2 is be determined. […]"}, "[2]": {"target": "T2, ERK2 (Mus musculus, UniProt P63085)", "T2 construct": "(His)x6; made in house; host or cells: bacteria", "T2 sequence (P63085 whole entry)": "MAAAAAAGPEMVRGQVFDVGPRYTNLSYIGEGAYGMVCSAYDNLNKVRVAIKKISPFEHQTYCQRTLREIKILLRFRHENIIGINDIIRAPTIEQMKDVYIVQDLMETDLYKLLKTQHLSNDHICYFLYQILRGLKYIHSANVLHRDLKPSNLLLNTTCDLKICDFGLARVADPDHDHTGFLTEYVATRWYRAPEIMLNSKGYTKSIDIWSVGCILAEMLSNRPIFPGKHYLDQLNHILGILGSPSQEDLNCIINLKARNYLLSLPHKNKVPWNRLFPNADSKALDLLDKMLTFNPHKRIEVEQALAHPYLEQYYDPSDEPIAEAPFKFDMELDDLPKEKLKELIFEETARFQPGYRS", "test": "Fluorescence titration (quenching of intrinsic ERK2 fluorescence)", "type": "binding", "protocol": "as §1, with “Experiments” for “Direct binding interactions between ERK2 and the biologically active compounds is determined using fluorescence spectroscopy (47). Experiments”\nThe excitation wavelength was 295 nm and fluorescence was monitored from 300 to 500 nm. All reported fluorescence intensities are relative values and are not corrected for wavelength variations in detector response. Dissociation constants, KD, were determined using reciprocal plots, 1/ν vs 1/[I], where ν represents the percent occupied sites calculated assuming fluorescence quenching to be directly proportion to the percentage of occupied binding sites, [I] represents the concentration of the inhibitor compound and the slope of the curve equals the KD (48-49).\nERK2 contains three tryptophans, which have intrinsic fluorescence. Fluorescence quenching of ERK2 by the test compounds is indicative of binding interactions and potential protein conformational changes."}}, "note": "“Also recorded” adds a separate entry of the source.", "data": [{"smiles": "CCOc1ccc(C=C2SC(=O)N(CCN)C2=O)cc1", "note": "[Compound 76]", "values": [{"measurement": "reduction in binding affinity compared to wild type ERK2", "setting": "[1]", "result": "approximately 5 fold"}, {"measurement": "y-intercept of reciprocal plot (indicating a single binding site)", "setting": "[2]; 1/ν vs 1/[I] plot", "result": 1.8}, {"measurement": "ERK2 fluorescence quenching / binding (in words)", "setting": "[2]; fluorescence titration", "result": "strong quenching; also recorded: bind to directly ERK2"}]}]}
